We go through three compounds from ChEMBL document CHEMBL1909046, “DrugMatrix in vitro pharmacology data”.

SMILES strings stand for the structures. pIC50: −log10 of the molar value.

The first experiment deals with Aldo-keto reductase family 1 member B1 (Rattus norvegicus, UniProt P07943). In words: biochemical. The experiment is classed as tissue-based, Lens of camera-type eye.
Details: not given
Regarding `CC[C@H](C)C(=O)O[C@H]1C[C@H](O)C=C2C=C[C@H](C)[C@H](CC[C@@H](O)C[C@@H](O)CC(=O)O)[C@H]21` [PRAVASTATIN], the IC50 entry is “Not Active”.

As for `CC(C)(Sc1cc(C(C)(C)C)c(O)c(C(C)(C)C)c1)Sc1cc(C(C)(C)C)c(O)c(C(C)(C)C)c1` [PROBUCOL], the IC50 entry is reported as “Not Active”.

The experiment is the same for the next values; noted with them: read-out: IC50.
As to `Cc1cccc(Nc2cc(Cl)nc(SCC(=O)O)n2)c1C` [PIRINIXIC ACID], the pIC50 was 5.55.

In another experiment the target is T1, Calcitonin receptor (Homo sapiens, UniProt P30988). Note: in other assays of this panel Not Active means under 50% inhibition at 10 µM.
T1 sequence (P30988 whole entry): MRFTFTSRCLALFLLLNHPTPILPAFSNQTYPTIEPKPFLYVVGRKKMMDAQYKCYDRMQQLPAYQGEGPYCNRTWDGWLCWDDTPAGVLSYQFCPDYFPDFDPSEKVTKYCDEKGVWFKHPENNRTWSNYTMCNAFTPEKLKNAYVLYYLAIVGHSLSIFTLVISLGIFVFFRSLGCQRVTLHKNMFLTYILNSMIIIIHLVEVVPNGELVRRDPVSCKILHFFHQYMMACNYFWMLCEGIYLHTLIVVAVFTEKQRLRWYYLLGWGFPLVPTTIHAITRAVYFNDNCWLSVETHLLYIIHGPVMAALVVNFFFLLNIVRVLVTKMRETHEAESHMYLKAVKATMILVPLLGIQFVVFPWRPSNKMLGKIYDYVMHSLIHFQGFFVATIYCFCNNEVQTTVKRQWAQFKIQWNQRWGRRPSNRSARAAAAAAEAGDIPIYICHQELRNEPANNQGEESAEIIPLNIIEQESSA
Experiment: not given
The experiment is classed as cell membranes, Membrane. To be noted: t47d.
In the case of `Cc1cccc(Nc2cc(Cl)nc(SCC(=O)O)n2)c1C` [PIRINIXIC ACID], the IC50 result is given as “Not Active”.

As to `CC[C@H](C)C(=O)O[C@H]1C[C@H](O)C=C2C=C[C@H](C)[C@H](CC[C@@H](O)C[C@@H](O)CC(=O)O)[C@H]21` [PRAVASTATIN], the IC50 entry is reported as “Not Active”.

Turning to `CC(C)(Sc1cc(C(C)(C)C)c(O)c(C(C)(C)C)c1)Sc1cc(C(C)(C)C)c(O)c(C(C)(C)C)c1` [PROBUCOL], the IC50 result was “Not Active”.

Tested on in another experiment: not listed separately
In words: DRUGMATRIX: Calcium Channel Type L, Phenylalkylamine radioligand binding (ligand: [3H] (-)-Desmethoxyverapamil (D-888)). In kind it is cell membranes, Rattus norvegicus, Wistar, Brain, Membrane. Particulars: Not Active = under 50% inhibition at 10 µM.
`Cc1cccc(Nc2cc(Cl)nc(SCC(=O)O)n2)c1C` [PIRINIXIC ACID]: the IC50 entry was “Not Active” and the Ki entry is on record as “Not Active”.

Consider `CC[C@H](C)C(=O)O[C@H]1C[C@H](O)C=C2C=C[C@H](C)[C@H](CC[C@@H](O)C[C@@H](O)CC(=O)O)[C@H]21` [PRAVASTATIN], for which the IC50 entry is listed as “Not Active” and the Ki entry is on record as “Not Active”.

Consider `CC(C)(Sc1cc(C(C)(C)C)c(O)c(C(C)(C)C)c1)Sc1cc(C(C)(C)C)c(O)c(C(C)(C)C)c1` [PROBUCOL], for which the IC50 result is listed as “Not Active” and the Ki result is listed as “Not Active”.

The target of a further experiment is T2, D(4) dopamine receptor (Homo sapiens, UniProt P21917).
T2 sequence (P21917 whole entry): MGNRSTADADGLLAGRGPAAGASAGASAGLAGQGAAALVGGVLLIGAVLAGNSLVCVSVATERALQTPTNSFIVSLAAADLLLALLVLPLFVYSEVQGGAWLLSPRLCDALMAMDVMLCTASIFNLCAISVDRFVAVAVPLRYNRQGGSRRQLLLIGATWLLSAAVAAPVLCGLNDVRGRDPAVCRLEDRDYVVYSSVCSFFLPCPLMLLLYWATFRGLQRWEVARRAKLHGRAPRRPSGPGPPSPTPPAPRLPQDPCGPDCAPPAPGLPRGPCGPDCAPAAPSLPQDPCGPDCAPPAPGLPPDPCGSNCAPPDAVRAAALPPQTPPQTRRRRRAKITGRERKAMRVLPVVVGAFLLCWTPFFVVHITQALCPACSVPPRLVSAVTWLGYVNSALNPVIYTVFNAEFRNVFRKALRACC
Kind of experiment: DRUGMATRIX: Dopamine D4.2 radioligand binding (ligand: [3H] Spiperone). The experiment is classed as cell membranes, CHO-K1, Membrane. To be noted: cho-k1; Not Active = under 50% inhibition at 10 µM.
With `Cc1cccc(Nc2cc(Cl)nc(SCC(=O)O)n2)c1C` [PIRINIXIC ACID], the IC50 result is recorded as “Not Active”.

For the compound `CC[C@H](C)C(=O)O[C@H]1C[C@H](O)C=C2C=C[C@H](C)[C@H](CC[C@@H](O)C[C@@H](O)CC(=O)O)[C@H]21` [PRAVASTATIN], the IC50 entry is listed as “Not Active”.

On to `CC(C)(Sc1cc(C(C)(C)C)c(O)c(C(C)(C)C)c1)Sc1cc(C(C)(C)C)c(O)c(C(C)(C)C)c1` [PROBUCOL], for which the IC50 result is given as “Not Active”.

The next experiment addresses T3, Endothelin-1 receptor (Homo sapiens, UniProt P25101).
T3 sequence (P25101 whole entry): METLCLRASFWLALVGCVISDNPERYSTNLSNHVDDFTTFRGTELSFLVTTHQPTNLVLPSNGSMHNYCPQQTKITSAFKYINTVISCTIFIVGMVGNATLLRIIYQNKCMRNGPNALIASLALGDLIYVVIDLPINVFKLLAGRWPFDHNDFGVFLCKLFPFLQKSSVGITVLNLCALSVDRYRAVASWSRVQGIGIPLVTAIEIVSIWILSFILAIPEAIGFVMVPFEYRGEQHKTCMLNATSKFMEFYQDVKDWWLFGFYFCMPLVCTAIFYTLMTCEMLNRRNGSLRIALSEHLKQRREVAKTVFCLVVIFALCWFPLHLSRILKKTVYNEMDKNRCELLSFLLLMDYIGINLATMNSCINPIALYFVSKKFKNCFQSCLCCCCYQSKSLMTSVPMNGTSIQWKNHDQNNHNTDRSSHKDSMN
Experiment: not given
To be noted: cho-k1. The experiment is classed as cell membranes, CHO-K1, Membrane.
For `Cc1cccc(Nc2cc(Cl)nc(SCC(=O)O)n2)c1C` [PIRINIXIC ACID], the IC50 entry is “Not Active”.

Regarding `CC[C@H](C)C(=O)O[C@H]1C[C@H](O)C=C2C=C[C@H](C)[C@H](CC[C@@H](O)C[C@@H](O)CC(=O)O)[C@H]21` [PRAVASTATIN], the IC50 result is listed as “Not Active”.

`CC(C)(Sc1cc(C(C)(C)C)c(O)c(C(C)(C)C)c1)Sc1cc(C(C)(C)C)c(O)c(C(C)(C)C)c1` [PROBUCOL]: the IC50 entry is recorded as “Not Active”.

Tested on in the next experiment: not listed separately
Kind of experiment: DRUGMATRIX: GABAA, Muscimol, Central radioligand binding (ligand: [3H] Muscimol). In kind it is cell membranes, Rattus norvegicus, Wistar, Brain, Membrane. Particulars: Not Active = under 50% inhibition at 10 µM.
In the case of `Cc1cccc(Nc2cc(Cl)nc(SCC(=O)O)n2)c1C` [PIRINIXIC ACID], the IC50 entry was “Not Active” and the Ki result is “Not Active”.

As for `CC[C@H](C)C(=O)O[C@H]1C[C@H](O)C=C2C=C[C@H](C)[C@H](CC[C@@H](O)C[C@@H](O)CC(=O)O)[C@H]21` [PRAVASTATIN], the IC50 entry is reported as “Not Active” and the Ki entry is on record as “Not Active”.

On to `CC(C)(Sc1cc(C(C)(C)C)c(O)c(C(C)(C)C)c1)Sc1cc(C(C)(C)C)c(O)c(C(C)(C)C)c1` [PROBUCOL], for which the IC50 result is reported as “Not Active” and the Ki result is on record as “Not Active”.

Tested on in a further experiment: not listed separately
In words: DRUGMATRIX: Glutamate, NMDA, Agonism radioligand binding (ligand: [3H] CGP-39653). In kind it is cell membranes, Rattus norvegicus, Wistar, Cerebral cortex, Membrane. To be noted: Not Active = under 50% inhibition at 10 µM.
Turning to `Cc1cccc(Nc2cc(Cl)nc(SCC(=O)O)n2)c1C` [PIRINIXIC ACID], the IC50 entry is reported as “Not Active” and the Ki result was “Not Active”.

For the compound `CC[C@H](C)C(=O)O[C@H]1C[C@H](O)C=C2C=C[C@H](C)[C@H](CC[C@@H](O)C[C@@H](O)CC(=O)O)[C@H]21` [PRAVASTATIN], the IC50 result is given as “Not Active” and the Ki result is given as “Not Active”.

For `CC(C)(Sc1cc(C(C)(C)C)c(O)c(C(C)(C)C)c1)Sc1cc(C(C)(C)C)c(O)c(C(C)(C)C)c1` [PROBUCOL], the IC50 result is “Not Active” and the Ki result was “Not Active”.

The next experiment concerns the target T4, Angiotensin-converting enzyme (Oryctolagus cuniculus, UniProt P12822).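 Note: enzymatic inhibition of angiotensin-converting enzyme measured with FAPGG as the substrate; in other assays of this panel Not Active means under 50% inhibition at 10 µM.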
T4 sequence (P12822 whole entry): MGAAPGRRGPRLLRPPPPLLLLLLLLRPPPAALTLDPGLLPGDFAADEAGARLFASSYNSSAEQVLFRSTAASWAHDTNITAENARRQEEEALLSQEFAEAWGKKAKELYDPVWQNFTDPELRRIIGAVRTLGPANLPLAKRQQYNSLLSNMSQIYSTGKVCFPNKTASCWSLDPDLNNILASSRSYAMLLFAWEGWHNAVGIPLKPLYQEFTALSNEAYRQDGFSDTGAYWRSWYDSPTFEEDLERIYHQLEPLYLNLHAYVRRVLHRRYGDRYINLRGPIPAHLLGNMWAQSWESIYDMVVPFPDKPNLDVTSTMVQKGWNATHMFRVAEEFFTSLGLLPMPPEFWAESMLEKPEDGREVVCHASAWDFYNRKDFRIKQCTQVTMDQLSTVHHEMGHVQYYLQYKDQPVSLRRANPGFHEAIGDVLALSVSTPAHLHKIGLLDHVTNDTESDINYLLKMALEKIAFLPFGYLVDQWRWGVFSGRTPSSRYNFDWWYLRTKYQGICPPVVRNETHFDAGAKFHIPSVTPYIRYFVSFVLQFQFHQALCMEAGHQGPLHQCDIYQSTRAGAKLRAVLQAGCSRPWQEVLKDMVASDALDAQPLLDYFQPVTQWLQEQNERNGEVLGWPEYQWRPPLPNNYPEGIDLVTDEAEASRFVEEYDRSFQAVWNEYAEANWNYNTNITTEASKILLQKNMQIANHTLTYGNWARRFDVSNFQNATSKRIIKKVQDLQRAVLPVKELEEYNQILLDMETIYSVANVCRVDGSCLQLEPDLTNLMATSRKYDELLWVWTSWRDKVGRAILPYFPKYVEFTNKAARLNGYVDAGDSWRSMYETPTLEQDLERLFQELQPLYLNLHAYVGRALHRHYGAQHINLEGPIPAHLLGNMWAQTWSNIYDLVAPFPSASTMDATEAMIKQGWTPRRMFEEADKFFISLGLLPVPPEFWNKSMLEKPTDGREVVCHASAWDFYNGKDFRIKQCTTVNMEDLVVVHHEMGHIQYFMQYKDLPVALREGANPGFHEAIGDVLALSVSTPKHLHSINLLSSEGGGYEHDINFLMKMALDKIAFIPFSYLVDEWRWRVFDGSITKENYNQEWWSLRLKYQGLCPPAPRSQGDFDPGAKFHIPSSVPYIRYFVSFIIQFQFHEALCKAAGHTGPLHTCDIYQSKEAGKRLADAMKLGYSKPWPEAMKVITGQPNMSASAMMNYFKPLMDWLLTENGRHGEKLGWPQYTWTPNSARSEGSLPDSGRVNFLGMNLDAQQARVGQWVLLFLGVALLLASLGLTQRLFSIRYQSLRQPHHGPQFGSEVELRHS
Experiment: not given
The experiment is classed as tissue-based, Lung.
Details: not given
`Cc1cccc(Nc2cc(Cl)nc(SCC(=O)O)n2)c1C` [PIRINIXIC ACID]: the IC50 result is listed as “Not Active”.

In the case of `CC[C@H](C)C(=O)O[C@H]1C[C@H](O)C=C2C=C[C@H](C)[C@H](CC[C@@H](O)C[C@@H](O)CC(=O)O)[C@H]21` [PRAVASTATIN], the IC50 entry is given as “Not Active”.

As for `CC(C)(Sc1cc(C(C)(C)C)c(O)c(C(C)(C)C)c1)Sc1cc(C(C)(C)C)c(O)c(C(C)(C)C)c1` [PROBUCOL], the IC50 entry was “Not Active”.

As a reminder, the pIC50 is the IC50 on a negative log10 scale, so that one unit is a factor of ten.
